This is an account of results in patent EP1994938A1, “New lipoglycodepsipeptide compositions” (priority 2007, dated 2008).

For experiment [1] the following is noted: fat emulsion formulation with an oil phase of 8%; cited from earlier work.
In experiment [2] the test system is Streptococcus spp., Staphylococcus spp. and Enterococcus spp. The conditions noted are these: including antibiotic resistant strains (VRE, MRSA); cited from earlier work.
For experiment [3], the system named is Staphylococcus aureus ATCC 29213. Kind of experiment: Broth microdilution MIC (CLSI), Ca2+ adjusted Mueller Hinton broth with 4% human serum albumin. The class given is cell-based. The procedure:
(§1) Herein, the minimum inhibitory concentration for the growth inhibition was determined by cultivation of the bacteria in Ca^2+ adjusted Mueller Hinton broth (broth microdilution method) according to the CLSI (previously NCCLS) rules (National Committee for Clinical Laboratory Standards. 2003. Methods for dilution antimicrobial susceptibility tests for bacteria that grow aerobically; approved standard - 6th ed. Document M7-A6. Clinical and Laboratory Standards Institute, Wayne, PA, USA). […] The Gram-positive strains tested for the cultivation methods were: • Staphylococcus aureus ATCC 29213 • Enterococcus faecalis ATCC 29212
(§2) The following inocula were incubated: Table 3
On the technique in general: In broth dilution the organism is exposed to a series of concentrations in liquid medium.

For experiment [4], the system named is Enterococcus faecalis ATCC 29212. Described as above. The class given is cell-based. As for the experimental part: as §1, §2

For ramoplanin, in experiment [1], the “effectiveness in septicaemia mouse models” value is “effective”. Further, the “general MICs (Minimal Inhibition Concentrations)” value in experiment [2] is reported as “below 1 µg/ml”. Besides, the “Antibiotic activity (MIC)” value in experiment [3] (Ramoplanin : SBE-β-CD 1:0), in experiment [3] (Ramoplanin : SBE-β-CD 1:2), in experiment [3] (Ramoplanin : SBE-β-CD 1:10), in experiment [4] (Ramoplanin : SBE-β-CD 1:0), in experiment [4] (Ramoplanin : SBE-β-CD 1:2) and in experiment [4] (Ramoplanin : SBE-β-CD 1:10) was 0.5 µg/mL throughout.
